Measurements taken from patent EP0236913A2, “Aryl-azolylmethyl-benzocyclo-alkene derivatives, process for their preparation and their use” (HOECHST AKTIENGESELLSCHAFT, priority 1986, dated 1987).
Converted amounts (≈) assume the structure as drawn.

Tests used:
[1] = test system: Trichophyton mentagrophytes; experiment: local in vivo efficacy in experimentally infected guinea pigs, dermal treatment; set-up: species or system Meerschweinchen (Stamm Pirbright white); conditions: Dermal 5 x 0.1 %; for Mykosen (Durchmesser in mm) Präparat + Vehikel x2: from day 3 after infection, mean, n = 6 measurements; for Mykosen Differenz (%): difference relative to Clotrimazol = 100; for Mykosen (Durchmesser in mm) Differenz x1 - x2: vehicle control side minus treated side
Description: Als Beispiel für die hohe lokale in vivo Wirksamkeit der erfindungsgemäßen Verbindungen werden Behandlungsergebnisse an experimentell mit Trichophyton mentagrophytes infizierten Labortieren angeführt.
Zur Feststellung der lokalen Wirksamkeit wurden jeweils zwei 450-500 g schwere Meerschweinchen (Stamm Pirbright white) mit 1,5 x 10^4 Konidien/Tier in die Epidermis, verteilt auf 6 Infektionspunkte, infiziert.
Die Behandlung der Tiere erfolgte dermal ab dem 3. Tag nach der Infektion an 5 aufeinanderfolgenden Tagen durch Aufbringen einer 0,1 %igen Präparatlösung auf 3 Infektionsstellen einer Rückenseite. Die andere Rückenseite wurde mit Vehikel ohne Präparat auf gleiche Weise behandelt.
Neben den mit den erfindungsgemäßen Substanzen behandelten Tieren wurden zwei Tiere mit der Referenzsubstanz Clotrimazol behandelt, zwei Tiere blieben nach der Infektion unbehandelt.

[2] = test system: Aspergillus niger (500/284); experiment: in vitro antimycotic serial dilution test (microtitration technique); assay type: cell-based; conditions: read-out: Minimale Hemmkonzentration
Description: (§1) Die in vitro-Prüfungen auf antimykotische Wirkung wurden im Reihenverdünnungstest an Hauptpilzen (Trichophyton mentagrophytes, Trichophyton rubrum, Microsporum canis), Hefepilzen (Candida Albicans) und Schimmelpilzen (Aspergillus niger) durchgeführt (Material und Methodik: Mikrotitrationstechnik veröffentlicht in Mykosen 27,14 (1984). Wie aus Tabelle 4 ersichtlich, zeigen bei diesen in vitro-Prüfungen die erfindungsgemäßen Verbindungen gute antimykotische Eigenschaften,die denjenigen der Referenzsubstand Clotrimazol überlegen sind.

[3] = test system: Microsporum canis (150/120); experiment: as above; assay type: cell-based; conditions: read-out: Minimale Hemmkonzentration
Description: as §1

[4] = test system: Trichophyton mentagrophytes (100/25); experiment: as above; assay type: cell-based; conditions: read-out: Minimale Hemmkonzentration
Description: as §1

[5] = test system: Trichophyton rubrum (101/58); experiment: as above; assay type: cell-based; conditions: read-out: Minimale Hemmkonzentration
Description: as §1

[6] = test system: Candida albicans (200/175); experiment: as above; assay type: cell-based; conditions: read-out: Minimale Hemmkonzentration
[7] = test system: Weizenmehltau (Erysiphe graminis); experiment: wheat powdery mildew, curative spray test on wheat plants (Versuch I); assay type: in vivo; conditions: untreated infected control = 100 %
Protocol: Weizenpflanzen werden im 3-Blattstadium mit Konidien des Weizenmehltaus (Erysiphe graminis) stark inokuliert und in einem Gewächshaus bei 20°C und einer relativen Luftfeuchte von 90 - 95% aufgestellt. 3 Tage nach Inokulation werden die Pflanzen mit den in Tabelle 6 aufgeführten Verbindungen in den angegebenen Wirkstoffkonzentrationen gleichmäßig benetzt. Nach einer Inkubationszeit von 10 Tagen werden die Pflanzen auf den Befall mit Weizenmehltau untersucht. Der Befallsgrad wird ausgedrückt in % befallener Blattfläche, bezogen auf unbehandelte, infizierte Kontrollpflanzen (= 100% Befall). Das Ergebnis ist in der Tabelle 6 zusammengefaßt.

[8] = test system: Pentetrazol-induzierte Krämpfe; experiment: antagonism of pentetrazol-induced convulsions (PTZ); assay type: in vivo, Maus; conditions: mouse; pentetrazol 125 mg/kg s.c. 1 h after oral test substance; tonic extensor convulsions; read-out: ED50 (mg/kg p.o.) Ptz
Protocol: Antagonismus gegen Pentetrazol-induzierte Krämpfe (Maus) (PTZ)
(§2) Methode: • Gruppen von 10 männlichen Mäusen (Stamm: NMRI, SPF-71, KF) im Gewicht von 18-22 g werden in diesem Versuch verwendet. Die zu prüfenden Substanzen werden in einer 1 %igen Aufschwemmung von Tylose (Methyl-hydroxy-ethyl-cellulose) in Wasser suspendiert und per Schlundsonde in einem Volumen von 10 ml/kg Körpergewicht oral verabreicht. Die Kontrollgruppe erhält ein entsprechendes Volumen Tylosesuspension ohne Prüfsubstanz.
Pentetrazol (Cardiazol (R)) wird in wäßriger Lösung in einer Dosis von 125 mg/kg Körpergewicht 1 Stunde nach Verabreichung der Prüfsubstanzen subcutan injiziert. Diese Dosis erzeugt bei 90-100 % der Kontrolltiere innerhalb der Beobachtungszeit von 60 Minuten nach der Injektion tonische Extensorkrämpfe der hinteren Extremitäten. Als Schutzwirkung der Prüfsubstanz wird gewertet, wenn die Anzahl der krampfenden Tiere gegenüber der Kontrollgruppe vermindert ist.
Bei vorhandener Schutzwirkung der Prüfsubstanz wird eine mittlere effektive Dosis (ED-50) grafisch (Litchfield and Wilcoxon) oder rechnerisch(Probitanalyse) ermittelt.
Literatur: E.A. SWINYARD, J.Pharmacol.Exp. Ther. 106, (1952), 319-330

[9] = test system: Pseudo-cercosporella herpotrichoides; experiment: agar plate test with Pseudocercosporella cultures (Versuch V); assay type: cell-based; conditions: 144 h, 6 days after inoculation, read-out: Wirkungsgrad gegenüber Pseudo-cercosporella herpotrichoides in %; for inhibition of growth at 125 µg/mL: 125 ppm Wirkstoff in Biomalzagar; for inhibition of growth at 250 µg/mL: 250 ppm Wirkstoff in Biomalzagar; for inhibition of growth at 500 µg/mL: 500 ppm Wirkstoff in Biomalzagar
Protocol: Biomalzagar wurde mit den beanspruchten Verbindungen in den in Tabelle 10 angegebenen Konzentrationen versetzt. Nach dem Erstarren des Agars erfolgte die Beimpfung mit Pseudocercosporella-Kulturen. Jeweils 20 µl einer Sporensuspension wurden auf das Zentrum der Agarplatte aufgebracht. Die Versuche wurden 6 Tage nach Beimpfung ausgewertet. Der Wirkungsgrad der Wirkstoffe wird ausgedrückt in % im Vergleich zur Kontrolle (Agarmedium ohne Wirkstoff).

[10] = test system: Elektroschock-induzierte Krämpfe; experiment: antagonism of electroshock-induced convulsions (ECS); assay type: in vivo, Maus; conditions: mouse; corneal electroshock 1 h after oral test substance; tonic extensor convulsions; read-out: ED50 (mg/kg p.o.) ECS
Protocol: Antagonismus gegen Elektroschock-induzierte Krämpfe (Maus) (ECS)
as §2, with “Gruppen von 6 männlichen Mäusen” for “Gruppen von 10 männlichen Mäusen”
Eine Stunde nach Prüfsubstanzgabe wird den.Tieren über Cornea-Elektroden ein Elektroschock verabreicht (Stromstärke 12-22 mA, Dauer 0.2 sec. 50 Hz), nachdem vorher an einer zweiten Kontrollgruppe die Stromstärke ermittelt worden war, die bei 100 % der Tiere einen tonischen Extensorkrampf der hinteren Extremitäten hervorruft.
Die Anzahl der durch die Prüfsubstanz vor einem Extensorkrampf geschützten Tiere dient als Maß der antikonvulsiven Wirkung in diesem Test.
Bei vorhandener Schutzwirkung der Prüfsubstanz wird eine mittlere effektive Dosis (ED-50) grafisch (Litchfield and Wilcoxon) oder rechnerisch (Probitanalyse) ermittelt.
Literatur: E.A. SWINYARD, In: Experimental Models of Epilepsy, Raven Press, New York, 1972, p. 433-458.

[11] = acute oral toxicity (LD-50); conditions: in vivo, per os
[12] = 60 mg Wirkstoff/Liter Spritzbrühe
[13] = 125 mg Wirkstoff/Liter Spritzbrühe
[14] = 250 mg Wirkstoff/Liter Spritzbrühe
[15] = 500 mg Wirkstoff/Liter Spritzbrühe

| SMILES | Mykosen (Durchmesser in mm) Präparat + Vehikel x2 [1] [mm] | Mykosen Differenz (%) [1] | Mykosen (Durchmesser in mm) Differenz x1 - x2 [1] [mm] | MIC [2] [µg/mL] | MIC [3] [µg/mL] | MIC [4] [µg/mL] | MIC [5] [µg/mL] | MIC [6] [µg/mL] | mit Weizenmehltau befallene Blattfläche in % [7, 12] | mit Weizenmehltau befallene Blattfläche in % [7, 13] | mit Weizenmehltau befallene Blattfläche in % [7, 14] [%] | mit Weizenmehltau befallene Blattfläche in % [7, 15] [%] | ED50 [8] [mg/kg] | inhibition of growth at 125 µg/mL [9] [%] | inhibition of growth at 250 µg/mL [9] [%] | inhibition of growth at 500 µg/mL [9] [%] | ED50 [10] [mg/kg] | LD50 [11] [mg/kg] |
| --- | --- | --- | --- | --- | --- | --- | --- | --- | --- | --- | --- | --- | --- | --- | --- | --- | --- | --- |
| Clc1ccccc1C(c1ccccc1)(c1ccccc1)n1ccnc1 [Clotrimazol, reference compound] | 7.6 | (100) % | 7 | 1.95 (≈ 5.65 µM) | 0.97 (≈ 2.81 µM) | 0.97 (≈ 2.81 µM) | 0.97 (≈ 2.81 µM) | 3.9 (≈ 11.3 µM) |  |  |  |  |  |  |  |  |  |  |
| CC1(C)CC(O)(Cn2ccnc2)c2ccccc21 (centres unmarked) [Beispiel 36, 1-(1H-Imidazol-1-ylmethyl)-3,3-dimethyl-indan-1-ol] |  |  |  |  |  |  |  |  | 0-3% | 0-3% | 0 | 0 |  |  |  |  |  |  |
| OC1(Cn2ccnc2)CCc2cc(Oc3ccccc3)ccc21 (centres unmarked) [Verbindung 11 (Tab. 3)] |  |  |  |  |  |  |  |  |  |  |  |  | 9.3 | 100 | 100 | 100 |  |  |
| Fc1cc(Cl)ccc1C1(Cn2ccnc2)CCCc2ccccc21 (centres unmarked) [Verbindung 33 (Tab. 1)] |  |  |  |  |  |  |  |  |  |  |  |  | 55 | 100 | 100 | 100 | 24.6 |  |
| Cc1ccc(C2(Cn3ccnc3)CCc3ccccc32)cc1C (centres unmarked) [Verbindung 53 (Tab. 1)] |  |  |  |  |  |  |  |  |  |  |  |  | 30 | 100 | 100 | 100 | 35.1 | > 300 |
| Fc1ccc(C2(Cn3ccnc3)CCCc3ccccc32)c(F)c1 (centres unmarked) [Verbindung 32 (Tab. 1)] |  |  |  |  |  |  |  |  |  |  |  |  | 17.2 | 100 | 100 | 100 | 60 |  |
| c1ccc(Oc2ccc(C3(Cn4ccnc4)CCc4ccccc43)cc2)cc1 (centres unmarked) [Verbindung 67 (Tab. 1)] | 3.2 | (107.1) % | 7.5 | 1.95 (≈ 5.32 µM) | 0.06 (≈ 0.164 µM) | 0.97 (≈ 2.65 µM) | 0.97 (≈ 2.65 µM) | 1.95 (≈ 5.32 µM) |  |  |  |  |  |  |  |  |  |  |
| OC1(Cn2ccnc2)CCc2ccccc21 (centres unmarked) [Verbindung 1 (Tab. 3), 1-Hydroxy-1-(1H-imidazol-1-ylmethyl)-indan] |  |  |  |  |  |  |  |  |  |  |  |  | 70 |  |  |  | 18.2 | 300 |
| c1ccc(-c2ccc(C3(Cn4ccnc4)CCc4ccccc43)cc2)cc1 (centres unmarked) [Verbindung 13 (Tab. 1)] |  |  |  |  |  |  |  |  |  |  |  |  | 16 | 100 | 100 | 100 | 17.3 | > 300 |
| c1ccc(-c2ccc(C3(Cn4ccnc4)CCCc4ccccc43)cc2)cc1 (centres unmarked) [Verbindung 60 (Tab. 1)] | 4.5 | (157.1) % | 11 | 1.95 (≈ 5.35 µM) | 0.007 (≈ 0.0192 µM) | 0.24 (≈ 0.658 µM) | 0.06 (≈ 0.165 µM) | 0.48 (≈ 1.32 µM) |  |  |  |  |  | 100 | 100 | 100 |  |  |
| c1ccc(Oc2ccc(C3(Cn4ccnc4)CCCc4ccccc43)cc2)cc1 (centres unmarked) [Verbindung 70 (Tab. 1)] | 3 | (182.8) % | 12.8 | 0.97 (≈ 2.55 µM) | 0.06 (≈ 0.158 µM) | 0.48 (≈ 1.26 µM) | 0.12 (≈ 0.315 µM) | 0.97 (≈ 2.55 µM) |  |  |  |  |  |  |  |  |  |  |
| Clc1ccc(C2(Cn3ccnc3)CCCc3ccccc32)cc1 (centres unmarked) [Verbindung 20 (Tab. 1)] | 4.3 | (138.5) % | 9.7 | 0.97 (≈ 3 µM) | 0.97 (≈ 3 µM) | 0.97 (≈ 3 µM) | 0.97 (≈ 3 µM) | 1.95 (≈ 6.04 µM) | 3% | 0-3% | 0 | 0 |  |  |  |  |  |  |
